Legend:
Type in all cases: cell-based
[1] = tested on: mouse hepatocyte cell lines (AML12); assay: TGF-β-induced fibrosis, co-administration of curcumin derivative and EW-7197 (epithelial-mesenchymal conversion, BODIPY, α-SMA staining, Western blotting); settings: 2 ng/ml TGF-β, 24 hours, 1 μM Cur or Cur5-8, 10 μM EW-7197; for epithelial-mesenchymal conversion caused by TGF-β: FIG. 8; for liver fibrosis (α-SMA staining, fibrosis marker Western blotting): FIGS. 8, 10, 11
Method: Fibrosis was induced in hepatocytes with TGF-β, a curcumin derivative and a TGF-β receptor inhibitor were co-administered, and then fibrosis and fat synthesis and degradation were checked.
Specifically, 2 ng/ml of TGF-β was administered to the cells of Example 1-1, the cells were divided into administration groups of vehicle (Veh), 1 μM curcumin (Cur), 1 μM curcumin 5-8 (Cur5-8), 0.5 μM EW-7197 (EW0.5), 10 μM EW-7197 (EW or EW10), 1 μM curcumin and 0.5 μM EW-7197 (EW0.5+Cur), 1 μM curcumin and 10 μM EW-7197 (EW+Cur or EW10+Cur), 1 μM curcumin 5-8 and 0.5 μM EW-7197 (EW0.5+Cur5-8), 1 μM curcumin 5-8 and 10 μM EW-7197 (EW+Cur5-8 or EW10+Cur5-8), respective samples were administered, and culturing was performed for 24 hours. The control group (Con) was not treated with either TGF-β or the sample. […] After washing with PBS 1×, stained cells were observed.
(§1) In addition, in order to check the degree of fibrosis of hepatocytes, the cells cultured for 24 hours were fixed with 4% paraformaldehyde and then stained by using α-SMA (Santa Cruz Biotechnology, Inc., Dallas, Texas, USA), an Alexafluor 488 (Cell Signaling Technology, Danvers, Massachusetts, USA) antibody, and DAPI (Abcam plc., Cambridge, MA, USA). The cells were mounted with a mounting solution (Fisher Scientific, Hampton, Rockingham, USA), the manufactured sample was photographed using a confocal microscope to obtain photographs of stained cells, and the degree of color development in the photographs of the stained cells was analyzed with the ImageJ program.
In addition, in order to confirm the degree of fibrosis of hepatocytes, the cells cultured for 24 hours were collected, and protein expressions of α-SMA, Collagen I (Coll), p-SMAD2, and p-SMAD3 were checked by Western blotting with fibrosis markers in the same method as described in <Example 1-3>.
In order to check a synergistic effect of inhibiting fibrosis caused by a TGF-β and inhibiting fat accumulation caused thereby in case of co-administration of a curcumin derivative (Cur5-8) and a TGF-β receptor inhibitor (EW-7197), epithelial-mesenchymal conversion of hepatocytes was confirmed through a cell experiment by the method described in Example 1-5, and BODIPY staining and α-SMA staining were performed. Also, protein expressions of α-SMA, Collagen I p-SMAD2, and p-SMAD3 were checked by Western blotting.

[2] = tested on: AML12 cells (mouse hepatocyte cell lines); assay: Fibrosis markers by Western blotting after TGF-β induction, TGF-β receptor inhibitor; settings: 2 ng/ml TGF-β, 10 μM EW-7197, 24 hours, FIG. 2
Method: Cell experiments were performed by using AML12, […], and LX-2 cells, a human hepatic stellate cell.
AML12 cells were cultured in a culture medium made by adding 5 ml of insulin (ITS), 40 ng/ml of dexamethasone, 1% penicillin streptomycin (anti-anti), and 10% fetal bovine serum (FBS) to F-12 media (Corning Incorporated, USA, Arizona), a mixture of a DMEM medium and Ham's F-12 at a ratio of 50:50, which is used for culturing hepatocytes or prostate epithelial cells.
Fibrosis was induced in hepatocytes with TGF-β, a TGF-β receptor inhibitor was administered, and fibrosis was checked.
Specifically, 2 ng/ml of TGF-β was administered to the cells of Example 1-1, and administered or not administered with 10 μM EW-7197 (EW), and cultured for 24 hours. The control group (Con) was not treated with either TGF-β or the sample. […] A protein concentration was measured by BCA assay (Pierce Biotechnology Inc). […] Then, the membranes were washed, briefly incubated with Pico Enhanced Peroxidase Detection (EPD) Western reagent (ELPISBIOTECH. INC.) according to the manufacturer's procedure, and quantified by using an image analyzer (ImageQuant™ LAS 500, GE Healthcare Bio-Sciences AB, Uppsala, Sweden). β-actin was used as an internal control. Densitometry of protein intensity was quantified by using ImageJ (National Institutes of Health). […]

[3] = tested on: mouse hepatocyte cell lines (AML12); assay: TGF-β-induced fibrosis, co-administration of dehydrozingerone derivative and EW-7197 (epithelial-mesenchymal conversion, BODIPY, α-SMA staining); settings: 2 ng/ml TGF-β, 24 hours, 10 μM EW-7197, 1 μM Cur or Cur5-8, 10 μM DHZ, DHZ103 or DHZ176
Method: as §1, with “In addition, the curcumin derivative Cur5-8 of Example 1-4 and the TGF-β receptor inhibitor were co-administered, and then fibrosis and fat synthesis and degradation were checked again. […] The control group (Con) was not treated with either TGF-β or the sample. […] After washing with PBS 1×, stained cells were observed. In addition,” for “In addition,”, “paraformaldehyde and stained by” for “paraformaldehyde and then stained by”

COc1cc(/C=C/C(=O)c2cccc(NC(=O)C(C)C)c2)ccc1O [Cur5-8, N-{3-[(2E)-3-(4-hydroxy-3-methoxyphenyl)prop-2-enoyl]phenyl}-2-methylpropanamide]
epithelial-mesenchymal conversion caused by TGF-β [1]: not inhibited
liver fibrosis (α-SMA staining, fibrosis marker Western blotting) [1]: liver fibrosis was induced

Cc1cccc(-c2[nH]c(CNc3ccccc3F)nc2-c2ccc3ncnn3c2)n1 [EW-7197, N-(2-fluorophenyl)-5-(6-methyl-2-pyridinyl)-4-[1,2,4]triazolo[1,5-a]pyridin-6-yl-1H-imidazole-2-methanamine]
protein expressions of α-SMA, Coll, p-SMAD2, and p-SMAD3 increased by TGF-β [2]: inhibited
epithelial-mesenchymal conversion caused by TGF-β ([3]; FIG. 16): inhibited
fat accumulation / adipogenesis in cells (BODIPY staining) ([3]; FIGS. 16, 17): fat accumulation in cells was exhibited
liver fibrosis (α-SMA staining) ([3]; FIGS. 16, 18): inhibited
epithelial-mesenchymal conversion caused by TGF-β [1]: inhibited
fat accumulation / adipogenesis in cells (BODIPY staining) ([1]; FIGS. 8, 9): fat accumulation in cells was exhibited
liver fibrosis (α-SMA staining, fibrosis marker Western blotting) [1]: inhibited

Reference: US20230364069A1, “METHOD FOR TREATING NON-ALCOHOLIC STEATOHEPATITIS THROUGH CO-ADMINISTRATION OF CURCUMIN DERIVATIVE AND TGF-B RECEPTOR INHIBITOR” (UNIVERSITY INDUSTRY FOUNDATION, YONSEI UNIVERSITY WONJU …, priority 2021, published 2023)
